Data taken from US20250313577A1, “TRICYCLIC PYRIDONES AND PYRIMIDONES” (ERASCA, INC, priority 2022, published 2025).

Target: T1, KRAS G12C (Homo sapiens, UniProt P01116, G12C)
T1 construct: expressed in transfected cells; host or cells: Ras Initiative (RI) KRAS G12C cells
Assay: phospho-ERK HTRF assay in Ras Initiative (RI) KRAS G12C cells
Format: cell-based
Conditions: phospho-ERK1/2 HTRF, 11-point dose response from 2,500 nM, treatment for either 4 hours or 16 hours, read-out: pERK (RI)
Experimental: Inhibition of KRAS G12C-Mediates Phospho-ERK1/2 Inhibition by Compounds of Formula I
This Example illustrates that various compounds of the present disclosure inhibit KRAS G12C thereby mediating the downstream inhibition of phospho-ERK1/2.
KRAS G12C mutant cell lines, NCI H358 (ATCC, CRL-5807), and Ras Initiative (R1) KRAS G12C were cultured according to published protocols and maintained at 37° C. in 5% CO2. The phospho-ERK HTRF assay was executed following provider's protocol (CisBio #64AERPEH). NCI-H358 or RI KRAS G12C cells were plated at a density of 50,000 cells per well in a 96-well plate (Corning #3903) in respective medias (for NCI-H358, RPMI+10% FBS+1% Pen/Strep, and for RI KRAS G12C, DMEM+10% FBS+1% Pen/Strep+4 ug/ml Blasticidin) and maintained at 37° C. in 5% CO2. Cells were allowed to adhere overnight and treated the following day with a Tecan D300e Digital Dispenser (Tecan Group Ltd., Switzerland) using an 11-point dose response starting at 2,500 nM of exemplified compounds followed by sequential 1:3 dilutions for either 4 hours or 16 hours. Following compound treatment, the cells were washed once with ice-cold PBS. Cells were lysed by adding 50 μl of lysis buffer (1×) supplemented with 1× Pierce Halt Protease and Phosphatase inhibitor and incubated for 30 minutes at 4° C. with shaking. After lysis, 16 μL of cell lysate from the 96-well cell-culture plate was transferred to a 384-well plate (Perkin Elmer #6007290). The premixed antibody solution was prepared by mixing (vol/vol) advanced phospho-ERK1/2 d2 antibody and advanced phospho-ERK1/2 Eu Cryptate antibody. The premixed antibody solution ([…]) was added to the detection plate containing cell lysate. The detection plate was incubated overnight at 4° C., the HTRF signal was read the next day by using either a Spectramax M5 or Spectramax i3 microplate reader (Molecular Devices, San Jose, CA, USA), and data was processed according to manufacturer's protocol.
Compounds prepared according to the preceding procedures and characterized for inhibition of p-ERK according to the protocol provided herein are summarized in Table 3: […]

IC50 [nM]	Molecule
2 to 20	C=CC(=O)N1[C@H](C)CN(c2nc(=O)n3c4c(c(-c5cc(Cl)c(F)cc5F)c(C(F)(F)F)cc24)SC[C@@H](c2ccncc2F)C3)C[C@@H]1C (single isomer, unassigned) [Example 112A]
20 to 250	(3R,11S)-8-((3S,5R)-4-acryloyl-3,5-dimethylpiperazin-1-yl)-11-(5-chloro-2,4-difluorophenyl)-3-((S)-3,4-dihydropyridin-4-yl)-10-(trifluoromethyl)-3,4-dihydro-2H,6H-[1,4]thiazepino[2,3,4-ij]quinazolin-6-one [Example 101B]
20 to 250	C=CC(=O)N1[C@H](C)CN(c2nc(=O)n3c4c(c(-c5ccc(F)cc5)c(C(F)(F)F)cc24)SCC(c2ccc(F)cc2)C3)C[C@@H]1C (stereo partly drawn) [Example 115, 8-((3S,5R)-4-acryloyl-3,5-dimethylpiperazin-1-yl)-3,11-bis(4-fluorophenyl)-10-(trifluoromethyl)-3,4-dihydro-2H,6H-[1,4]thiazepino[2,3,4-ij]quinazolin-6-one]
0.5 to 2	C=CC(=O)N1[C@H](C)CN(c2nc(=O)n3c4c(c(-c5cc(Br)c(F)cc5F)c(C(F)(F)F)cc24)SC[C@@H](c2cccnc2)C3)C[C@@H]1C (atropisomer, axis not shown) [Example 108A, (3S,11R)-8-((3S,5R)-4-acryloyl-3,5-dimethylpiperazin-1-yl)-11-(5-bromo-2,4-difluorophenyl)-3-(pyridin-3-yl)-10-(trifluoromethyl)-3,4-dihydro-2H,6H-[1,4]thiazepino[2,3,4-ij]quinazolin-6-one]
2 to 20	C=CC(=O)N1[C@H](C)CN(c2nc(=O)n3c4c(c(-c5cc(Cl)c(F)cc5F)c(C(F)(F)F)cc24)SC[C@@H](c2cncc(F)c2)C3)C[C@@H]1C [Example 109, (3S)-8-((3S,5R)-4-acryloyl-3,5-dimethylpiperazin-1-yl)-11-(5-chloro-2,4-difluorophenyl)-3-(5-fluoropyridin-3-yl)-10-(trifluoromethyl)-3,4-dihydro-2H,6H-[1,4]thiazepino[2,3,4-ij]quinazolin-6-one]
0.5 to 2	C=CC(=O)N1[C@H](C)CN(c2nc(=O)n3c4c(c(-c5ccc(F)cc5)c(C(F)(F)F)cc24)SC[C@@H](c2ccncc2)C3)C[C@@H]1C [Example 113, (S)-8-((3S,5R)-4-acryloyl-3,5-dimethylpiperazin-1-yl)-11-(4-fluorophenyl)-3-(pyridin-4-yl)-10-(trifluoromethyl)-3,4-dihydro-2H,6H-[1,4]thiazepino[2,3,4-ij]quinazolin-6-one]
20 to 250	C=CC(=O)N1[C@H](C)CN(c2nc(=O)n3c4c(c(-c5cc(Cl)c(F)cc5F)c(C(F)(F)F)cc24)SC[C@H](c2ccncc2F)C3)C[C@@H]1C [Example 111]
0.5 to 2	C=CC(=O)N1[C@H](C)CN(c2nc(=O)n3c4c(c(-c5ccc(F)cc5)c(C(F)(F)F)cc24)SC[C@@H](c2ccncc2F)C3)C[C@@H]1C [Example 114, (S)-8-((3S,5R)-4-acryloyl-3,5-dimethylpiperazin-1-yl)-11-(4-fluorophenyl)-3-(3-fluoropyridin-4-yl)-10-(trifluoromethyl)-3,4-dihydro-2H,6H-[1,4]thiazepino[2,3,4-ij]quinazolin-6-one]
2 to 20	C=CC(=O)N1[C@H](C)CN(c2nc(=O)n3c4c(c(-c5cc(Br)c(F)cc5F)c(C(F)(F)F)cc24)SC[C@@H](c2cccnc2)C3)C[C@@H]1C [Example 108B, (3S,11S)-8-((3S,5R)-4-acryloyl-3,5-dimethylpiperazin-1-yl)-11-(5-bromo-2,4-difluorophenyl)-3-(pyridin-3-yl)-10-(trifluoromethyl)-3,4-dihydro-2H,6H-[1,4]thiazepino[2,3,4-ij]quinazolin-6-one]
2 to 20	C=CC(=O)N1[C@H](C)CN(c2nc(=O)n3c4c(c(-c5cc(Cl)c(F)cc5F)c(C(F)(F)F)cc24)SC[C@@H](c2cccnc2)C3)C[C@@H]1C [Example 104B, (3S,11S)-8-((3S,5R)-4-acryloyl-3,5-dimethylpiperazin-1-yl)-11-(5-chloro-2,4-difluorophenyl)-3-(pyridin-3-yl)-10-(trifluoromethyl)-3,4-dihydro-2H,6H-[1,4]thiazepino[2,3,4-ij]quinazolin-6-one]
2 to 20	C=CC(=O)N1[C@H](C)CN(c2nc(=O)n3c4c(c(-c5ccc(F)cc5)c(C(F)(F)F)cc24)SCC(c2ccc(F)cc2)C3)C[C@@H]1C (some centres unmarked) [Example 116]
0.5 to 2	C=CC(=O)N1[C@H](C)CN(c2nc(=O)n3c4c(c(-c5cc(Br)c(F)cc5F)c(C(F)(F)F)cc24)SC[C@@H](c2ccccn2)C3)C[C@@H]1C (single isomer, unassigned) [Example 107B]
20 to 250	C=CC(=O)N1[C@H](C)CN(c2nc(=O)n3c4c(c(-c5ccc(F)cc5)c(C(F)(F)F)cc24)SC[C@H](c2cccs2)C3)C[C@@H]1C [Example 124, (R)-8-((3S,5R)-4-acryloyl-3,5-dimethylpiperazin-1-yl)-11-(4-fluorophenyl)-3-(thiophen-2-yl)-10-(trifluoromethyl)-3,4-dihydro-2H,6H-[1,4]thiazepino[2,3,4-ij]quinazolin-6-one]
0.5 to 2	C=CC(=O)N1[C@H](C)CN(c2nc(=O)n3c4c(c(-c5ccc(F)cc5)c(C(F)(F)F)cc24)SC[C@@H](c2cncc(F)c2)C3)C[C@@H]1C [Example 126, (S)-8-((3S,5R)-4-acryloyl-3,5-dimethylpiperazin-1-yl)-11-(4-fluorophenyl)-3-(5-fluoropyridin-3-yl)-10-(trifluoromethyl)-3,4-dihydro-2H,6H-[1,4]thiazepino[2,3,4-ij]quinazolin-6-one]
0.5 to 2	C=CC(=O)N1[C@H](C)CN(c2nc(=O)n3c4c(c(-c5cc(Cl)c(F)cc5F)c(C(F)(F)F)cc24)SC[C@@H](c2cccnc2)C3)C[C@@H]1C (atropisomer, axis not shown) [Example 104A, (3S,11R)-8-((3S,5R)-4-acryloyl-3,5-dimethylpiperazin-1-yl)-11-(5-chloro-2,4-difluorophenyl)-3-(pyridin-3-yl)-10-(trifluoromethyl)-3,4-dihydro-2H,6H-[1,4]thiazepino[2,3,4-ij]quinazolin-6-one]
2 to 20	C=CC(=O)N1[C@H](C)CN(c2nc(=O)n3c4c(c(-c5cc(Br)c(F)cc5F)c(C(F)(F)F)cc24)SC[C@@H](c2ccccn2)C3)C[C@@H]1C (single isomer, unassigned) [Example 107A]
0.5 to 2	C=CC(=O)N1[C@H](C)CN(c2nc(=O)n3c4c(c(-c5cc(Cl)c(F)cc5F)c(C(F)(F)F)cc24)SC[C@@H](c2ccncc2F)C3)C[C@@H]1C (single isomer, unassigned) [Example 112B]
2 to 20	C=CC(=O)N1[C@H](C)CN(c2nc(=O)n3c4c(c(-c5cc(Cl)c(F)cc5F)c(C(F)(F)F)cc24)SC[C@@H](c2ccncc2)C3)C[C@@H]1C (single isomer, unassigned) [Example 100A]
2 to 20	C=CC(=O)N1[C@H](C)CN(c2nc(=O)n3c4c(c(-c5ccc(F)cc5)c(C(F)(F)F)cc24)SC[C@@H](c2cccs2)C3)C[C@@H]1C [Example 125, (S)-8-((3S,5R)-4-acryloyl-3,5-dimethylpiperazin-1-yl)-11-(4-fluorophenyl)-3-(thiophen-2-yl)-10-(trifluoromethyl)-3,4-dihydro-2H,6H-[1,4]thiazepino[2,3,4-ij]quinazolin-6-one]
> 250	C=CC(=O)N1[C@H](C)CN(c2nc(=O)n3c4c(c(-c5ccc(F)cc5F)c(C(F)(F)F)cc24)SC[C@H](c2ccc(F)cc2)C3)C[C@@H]1C (atropisomer, axis not shown) [Example 118]
0.5 to 2	C=CC(=O)N1[C@H](C)CN(c2nc(=O)n3c4c(c(-c5ccc(F)cc5)c(C(F)(F)F)cc24)SC[C@@H](c2ccccn2)C3)C[C@@H]1C [Example 106, (R)-8-((3S,5R)-4-acryloyl-3,5-dimethylpiperazin-1-yl)-11-(4-fluorophenyl)-3-(pyridin-2-yl)-10-(trifluoromethyl)-3,4-dihydro-2H,6H-[1,4]thiazepino[2,3,4-ij]quinazolin-6-one]
0.5 to 2	C=CC(=O)N1[C@H](C)CN(c2nc(=O)n3c4c(c(-c5cc(Br)c(F)cc5F)c(C(F)(F)F)cc24)SC[C@@H](c2ccncc2)C3)C[C@@H]1C [Example 102, (3S)-8-((3S,5R)-4-acryloyl-3,5-dimethylpiperazin-1-yl)-11-(5-bromo-2,4-difluorophenyl)-3-(pyridin-4-yl)-10-(trifluoromethyl)-3,4-dihydro-2H,6H-[1,4]thiazepino[2,3,4-ij]quinazolin-6-one]
> 250	C=CC(=O)N1[C@H](C)CN(c2nc(=O)n3c4c(c(-c5cc(Br)c(F)cc5F)c(C(F)(F)F)cc24)SC[C@H](c2ccccn2)C3)C[C@@H]1C [Example 103]
